According to PubChem BioAssay (NCI):
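Test compounds were applied to cells in 96-well plates for 48 hours at 5 doses. GI50 is the concentration that inhibits growth by half. Definition used: TGI = concentration required for complete inhibition of growth.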

Columns and labels:
Assay in all cases: inhibition of tumour cell growth, NCI panel, 48 h
[1] = tested on: HS 578T breast
[2] = tested on: OVCAR-3 ovarian
[3] = tested on: SF-295 CNS
[4] = tested on: NCI-H226 lung
[5] = tested on: MDA-MB-435
[6] = tested on: MALME-3M melanoma
[7] = tested on: A498 renal
[8] = tested on: DU-145 prostate
[9] = tested on: HCT-116 colon
[10] = tested on: CCRF-CEM leukemia
[11] = tested on: CAKI-1 renal
[12] = tested on: SK-MEL-5 melanoma
[13] = tested on: KM12 colon
[14] = tested on: UACC-257 melanoma
[15] = tested on: SR leukemia
[16] = tested on: HL-60(TB) leukemia
[17] = tested on: BT-549 breast
[18] = tested on: UO-31 renal
[19] = tested on: HOP-62 NSCLC
[20] = tested on: M14 melanoma
[21] = tested on: TK-10 renal
[22] = tested on: OVCAR-5 ovarian
[23] = tested on: HOP-92 NSCLC
[24] = tested on: SF-268 CNS
[25] = tested on: UACC-62 melanoma
[26] = tested on: SNB-19 CNS
[27] = tested on: HT29 colon
[28] = tested on: LOX IMVI melanoma
[29] = tested on: T-47D breast
[30] = tested on: OVCAR-4 ovarian
[31] = tested on: MCF7 breast
[32] = tested on: NCI-H460 lung
[33] = tested on: MOLT-4 leukemia
[34] = tested on: 786-0 renal
[35] = tested on: SK-OV-3 ovarian
[36] = tested on: SK-MEL-28 melanoma
[37] = tested on: K-562 leukemia
[38] = tested on: SF-539 CNS
[39] = tested on: A549 NSCLC
[40] = tested on: HCT-15 colon
[41] = tested on: NCI/ADR-RES ovarian
[42] = tested on: HCC-2998 colon
[43] = tested on: NCI-H23 lung
[44] = tested on: RXF 393 renal
[45] = tested on: SK-MEL-2 melanoma
[46] = tested on: MDA-MB-231 breast
[47] = tested on: RPMI-8226 leukemia
[48] = tested on: SNB-75 CNS
[49] = tested on: SW-620 colon
[50] = tested on: IGROV1 ovarian
[51] = tested on: PC-3 prostate
[52] = tested on: COLO 205 colon
[53] = tested on: ACHN renal
[54] = tested on: NCI-H522 lung
[55] = tested on: SN12C renal
[56] = tested on: U251 CNS
[57] = tested on: OVCAR-8 ovarian

CC(C)(C)c1[nH]nc2c1C(c1cc3ccccc3[nH]c1=O)Nc1cc(C(=O)Nc3ccc(Cl)cc3)ccc1N2 (centres undefined)
GI50 [1]: 2.38 µM
TGI [1]: > 28.8 µM
GI50 [2]: 1.93 µM
TGI [2]: 3.82 µM
GI50 [3]: 2.77 µM
TGI [3]: 8.82 µM
GI50 [4]: 2.94 µM
TGI [4]: 11.1 µM
GI50 [5]: 1.84 µM
TGI [5]: 4.84 µM
GI50 [6]: 1.92 µM
TGI [6]: 4.41 µM
GI50 [7]: 1.58 µM
TGI [7]: 3.8 µM
GI50 [8]: 4.26 µM
TGI [8]: > 48.4 µM
GI50 [9]: 3.11 µM
TGI [9]: 10.7 µM
GI50 [10]: 2.16 µM
TGI [10]: > 21.6 µM
GI50 [11]: > 100 µM
TGI [11]: > 100 µM
GI50 [12]: 1.77 µM
TGI [12]: 3.55 µM
GI50 [13]: 3.33 µM
TGI [13]: 16.2 µM
GI50 [14]: 2.33 µM
TGI [14]: 7.31 µM
GI50 [15]: 2.56 µM
TGI [15]: > 24.9 µM
GI50 [16]: 2.33 µM
TGI [16]: 5.64 µM
GI50 [17]: 2.37 µM
TGI [17]: 6.65 µM
GI50 [18]: 46 µM
TGI [18]: > 100 µM
GI50 [19]: 3.14 µM
TGI [19]: 10 µM
GI50 [20]: 2.12 µM
TGI [20]: 4.75 µM
GI50 [21]: 3.71 µM
TGI [21]: 17.2 µM
GI50 [22]: 3.84 µM
TGI [22]: 39 µM
GI50 [23]: 2.03 µM
TGI [23]: 6.05 µM
GI50 [24]: 3.66 µM
TGI [24]: 29.5 µM
GI50 [25]: 2.03 µM
TGI [25]: 4.41 µM
GI50 [26]: 2.68 µM
TGI [26]: 11.9 µM
GI50 [27]: 3.46 µM
TGI [27]: 13 µM
GI50 [28]: 2.98 µM
TGI [28]: 9.21 µM
GI50 [29]: 2.5 µM
TGI [29]: 9.14 µM
GI50 [30]: 2.12 µM
TGI [30]: 6.96 µM
GI50 [31]: 2.55 µM
TGI [31]: 15.3 µM
GI50 [32]: 3.21 µM
TGI [32]: 18.2 µM
GI50 [33]: 2.32 µM
TGI [33]: 7.91 µM
GI50 [34]: 2.3 µM
TGI [34]: 5.54 µM
GI50 [35]: 3.04 µM
TGI [35]: 8.01 µM
GI50 [36]: 3.76 µM
TGI [36]: 21.5 µM
GI50 [37]: 2.94 µM
TGI [37]: > 54.9 µM
GI50 [38]: 2.34 µM
TGI [38]: 6.49 µM
GI50 [39]: 4.66 µM
TGI [39]: > 100 µM
GI50 [40]: > 28.8 µM
TGI [40]: > 100 µM
GI50 [41]: > 100 µM
TGI [41]: > 100 µM
GI50 [42]: 2.64 µM
TGI [42]: 6.52 µM
GI50 [43]: 2.6 µM
TGI [43]: 7.31 µM
GI50 [44]: 1.94 µM
TGI [44]: 3.7 µM
GI50 [45]: 2 µM
TGI [45]: 4.05 µM
GI50 [46]: 2.26 µM
TGI [46]: 6.32 µM
GI50 [47]: 1.9 µM
TGI [47]: 5.27 µM
GI50 [48]: 2.27 µM
TGI [48]: 6.51 µM
GI50 [49]: 3.13 µM
TGI [49]: 12.3 µM
GI50 [50]: 3.28 µM
TGI [50]: 8.95 µM
GI50 [51]: 3.15 µM
TGI [51]: 11.7 µM
GI50 [52]: 2.88 µM
TGI [52]: 6.46 µM
GI50 [53]: 4.71 µM
TGI [53]: > 64.7 µM
GI50 [54]: 2.71 µM
TGI [54]: 6.94 µM
GI50 [55]: 3.15 µM
TGI [55]: 14 µM
GI50 [56]: 3.08 µM
TGI [56]: 11.4 µM
GI50 [57]: 3.04 µM
TGI [57]: 11 µM
